Data taken from BindingDB's records for doi:10.1016/j.ejmech.2020.112339 (China Pharmaceutical University, 2020).

Test: Inhibition of BTK in human TMD8 cells assessed as reduction in cell proliferation incubated for 24 hrs by CCK-8 assay

IC50: 4.36 µM
Structure (SMILES): C=CC(=O)Nc1cccc(Nc2ncnc(Nc3ccc(C(=O)N4CCCCC4)cc3)n2)c1
